Tests used:
NRK [1] = experiment: Effect on morphological reversion in src transformed NRK cells at 30 ug/mL; format: functional; details: Rattus norvegicus
NRK [2] = experiment: Effect on morphological reversion in src transformed NRK cells at 100 ug/mL; format: functional; details: Rattus norvegicus
[3] = target: T1, Isoleucine--tRNA ligase, cytoplasmic (Homo sapiens, UniProt P41252); experiment: Inhibition of IleRS
T1 sequence (P41252 whole entry): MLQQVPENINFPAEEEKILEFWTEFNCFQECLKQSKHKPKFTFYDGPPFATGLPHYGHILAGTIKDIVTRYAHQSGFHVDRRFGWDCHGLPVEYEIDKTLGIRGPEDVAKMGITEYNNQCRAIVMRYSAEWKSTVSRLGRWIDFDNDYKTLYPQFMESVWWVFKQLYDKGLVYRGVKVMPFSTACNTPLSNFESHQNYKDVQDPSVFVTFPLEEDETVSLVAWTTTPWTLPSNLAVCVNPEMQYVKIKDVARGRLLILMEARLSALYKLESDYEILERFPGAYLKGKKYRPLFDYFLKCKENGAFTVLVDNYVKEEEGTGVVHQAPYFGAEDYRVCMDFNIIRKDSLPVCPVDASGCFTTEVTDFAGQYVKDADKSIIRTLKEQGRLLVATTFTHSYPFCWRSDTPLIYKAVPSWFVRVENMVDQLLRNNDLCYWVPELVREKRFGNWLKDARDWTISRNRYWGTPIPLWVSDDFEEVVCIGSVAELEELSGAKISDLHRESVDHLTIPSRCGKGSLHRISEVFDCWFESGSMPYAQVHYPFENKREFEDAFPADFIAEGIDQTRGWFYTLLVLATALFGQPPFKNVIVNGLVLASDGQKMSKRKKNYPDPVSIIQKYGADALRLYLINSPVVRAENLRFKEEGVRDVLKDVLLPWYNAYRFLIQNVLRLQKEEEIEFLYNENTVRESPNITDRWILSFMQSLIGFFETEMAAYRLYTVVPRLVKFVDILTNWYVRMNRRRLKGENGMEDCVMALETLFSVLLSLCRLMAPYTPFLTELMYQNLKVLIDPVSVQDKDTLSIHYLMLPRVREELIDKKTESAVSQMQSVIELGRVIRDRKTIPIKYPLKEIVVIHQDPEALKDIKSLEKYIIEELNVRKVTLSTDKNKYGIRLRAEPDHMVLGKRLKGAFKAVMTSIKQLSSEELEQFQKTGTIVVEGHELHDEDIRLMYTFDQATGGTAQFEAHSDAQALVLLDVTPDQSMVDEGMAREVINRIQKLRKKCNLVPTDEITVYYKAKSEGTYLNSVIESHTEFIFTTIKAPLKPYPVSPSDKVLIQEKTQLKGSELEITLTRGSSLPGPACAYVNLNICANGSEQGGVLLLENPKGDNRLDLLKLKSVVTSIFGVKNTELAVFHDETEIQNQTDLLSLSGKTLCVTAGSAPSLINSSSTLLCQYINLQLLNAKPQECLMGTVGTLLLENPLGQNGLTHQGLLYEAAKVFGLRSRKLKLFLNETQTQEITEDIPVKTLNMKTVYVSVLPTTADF

NRK [4] = experiment: Effect on morphological reversion in src transformed NRK cells at 10 ug/mL; format: functional; details: Rattus norvegicus
NRK [5] = experiment: Effect on morphological reversion in src transformed NRK cells at 3 ug/mL; format: functional; details: Rattus norvegicus
Osteoclast = experiment: Induction of apoptosis in mouse osteoclasts; format: functional
NRK [6] = experiment: Effect on morphological reversion in src transformed NRK cells at 1 ug/mL; format: functional; details: Rattus norvegicus
NRK [7] = experiment: Effect on morphological reversion in src transformed NRK cells at 0.3 ug/mL; format: functional; details: Rattus norvegicus

With `CCCC[C@@]1(OC)CC[C@]2(CC[C@H](C)[C@@H](C/C=C(C)/C=C/[C@H](O)[C@@H](C)/C=C/C(=O)O)O2)O[C@H]1/C=C/C(C)=C/C(=O)O` the inhibition at 30 µg/mL (NRK [1]) was greater than 80%, the inhibition at 100 µg/mL (NRK [2]) was greater than 80% and the IC50 [3] was 101 nM. The inhibition at 10 µg/mL (NRK [4]) was 20%.

`CCCC[C@@]1(OC(=O)CCC(=O)O)CC[C@]2(CC[C@H](C)[C@@H](C/C=C(C)/C=C/[C@H](OC(C)=O)[C@@H](C)/C=C/C(=O)O)O2)O[C@H]1/C=C/C(C)=C/C(=O)O` was tested, and the inhibition at 30 µg/mL (NRK [1]) was greater than 80%, the inhibition at 100 µg/mL (NRK [2]) was greater than 80% and the inhibition at 3 µg/mL (NRK [5]) was less than 10%. It also gave an IC50 [3] greater than 1420 nM, an inhibition at 10 µg/mL (NRK [4]) of 50% and an Activity (Osteoclast) of 0.46 µg/mL. The inhibition at 1 µg/mL (NRK [6]) was less than 10%.

With `CCCC[C@@]1(OC(=O)CCC(=O)O)CC[C@]2(CC[C@H](C)[C@@H](C/C=C(C)/C=C/[C@H](OC)[C@@H](C)/C=C/C(=O)O)O2)O[C@H]1/C=C/C(C)=C/C(=O)O` the inhibition at 100 µg/mL (NRK [2]) was less than 10%, the inhibition at 3 µg/mL (NRK [5]) was less than 10% and the IC50 [3] was 554 nM. The Activity (Osteoclast) was greater than 15 µg/mL.

`CCCC[C@@]1(O)CC[C@]2(CC[C@H](C)[C@@H](C/C=C(C)/C=C/[C@H](O)[C@@H](C)/C=C/C(=O)O)O2)O[C@H]1/C=C/C(C)=C/C(=O)O` showed an inhibition at 100 µg/mL (NRK [2]) of less than 10%, an IC50 [3] of 169 nM and an Activity (Osteoclast) of 11.5 µg/mL.

`CCCC[C@@]1(OCSC)CC[C@]2(CC[C@H](C)[C@@H](C/C=C(C)/C=C/[C@H](O)[C@@H](C)/C=C/C(=O)O)O2)O[C@H]1/C=C/C(C)=C/C(=O)O` showed an inhibition at 30 µg/mL (NRK [1]) of 20%, an inhibition at 100 µg/mL (NRK [2]) greater than 80% and an IC50 [3] of 801 nM. The inhibition at 10 µg/mL (NRK [4]) was less than 10% and the Activity (Osteoclast) was 9.6 µg/mL.

With `CCCC[C@@]1(OC(=O)CCC(=O)O)CC[C@]2(CC[C@H](C)[C@@H](C/C=C(C)/C=C/[C@H](O)[C@@H](C)CO)O2)O[C@H]1/C=C/C(C)=C/C(=O)O` the inhibition at 30 µg/mL (NRK [1]) was 20%, the inhibition at 100 µg/mL (NRK [2]) was greater than 80% and the inhibition at 3 µg/mL (NRK [5]) was less than 10%. The IC50 [3] was 36.9 nM, the inhibition at 10 µg/mL (NRK [4]) was less than 10% and the Activity (Osteoclast) was 6.31 µg/mL. For the same molecule, the inhibition at 1 µg/mL (NRK [6]) was less than 10% and the inhibition at 0.3 µg/mL (NRK [7]) was less than 10%.

In the case of `CCCC[C@@]1(OC(=O)CCC(=O)O)CC[C@]2(CC[C@H](C)[C@@H](C/C=C(C)/C=C/[C@H](O[Si](C)(C)C(C)(C)C)[C@@H](C)/C=C/C(=O)O)O2)O[C@H]1/C=C/C(C)=C/C(=O)O`, the inhibition at 100 µg/mL (NRK [2]) is reported as less than 10%, the IC50 [3] is reported as greater than 1290 nM and the Activity (Osteoclast) is reported as 5.9 µg/mL.

`CCCC[C@@]1(OC(=O)CCC(=O)OC)CC[C@]2(CC[C@H](C)[C@@H](C/C=C(C)/C=C/[C@H](O)[C@@H](C)/C=C/C(=O)O)O2)O[C@H]1/C=C/C(C)=C/C(=O)O` gave an inhibition at 30 µg/mL (NRK [1]) greater than 80%, an inhibition at 100 µg/mL (NRK [2]) greater than 80% and an inhibition at 3 µg/mL (NRK [5]) greater than 80%. The IC50 [3] was 434 nM, the inhibition at 10 µg/mL (NRK [4]) was greater than 80% and the Activity (Osteoclast) was 2.5 µg/mL. The inhibition at 1 µg/mL (NRK [6]) was 10%.

Work on `CCCC[C@@]1(OC(=O)CCC(=O)O)CC[C@]2(CC[C@H](C)[C@@H](CCO)O2)O[C@H]1/C=C/C(C)=C/C(=O)O` yielded an inhibition at 30 µg/mL (NRK [1]) of less than 10%, an inhibition at 100 µg/mL (NRK [2]) of less than 10% and an inhibition at 3 µg/mL (NRK [5]) of less than 10%. It also gave an IC50 [3] greater than 2010 nM and an inhibition at 10 µg/mL (NRK [4]) of less than 10%.

Work on `CCCC[C@@]1(OC(=O)CCC(=O)O)CC[C@]2(CC[C@H](C)[C@@H](C/C=C(C)/C=C/C(=O)O)O2)O[C@H]1/C=C/C(C)=C/C(=O)O` yielded an inhibition at 30 µg/mL (NRK [1]) of less than 10%, an inhibition at 100 µg/mL (NRK [2]) of less than 10% and an inhibition at 3 µg/mL (NRK [5]) of less than 10%. For the same molecule, the IC50 [3] was greater than 1730 nM and the inhibition at 10 µg/mL (NRK [4]) was less than 10%.

Work on `CCCC[C@@]1(OC(=O)CCC(=O)O)CC[C@]2(CC[C@H](C)[C@@H](C/C=C(C)/C=C/CO)O2)O[C@H]1/C=C/C(C)=C/C(=O)O` yielded an inhibition at 30 µg/mL (NRK [1]) of less than 10%, an inhibition at 100 µg/mL (NRK [2]) of less than 10% and an inhibition at 3 µg/mL (NRK [5]) of less than 10%. For the same molecule, the IC50 [3] was 996 nM and the inhibition at 10 µg/mL (NRK [4]) was less than 10%.
